According to ChEMBL document CHEMBL3259687, “Synthesis and identification of chiral aminomethylpiperidine carboxamides as inhibitor of collagen induced platelet activation” (Eur J Med Chem, 2014):
pIC50: −log10 of the molar value. Activity calls are given as the source filed them. No cut-off for these calls is given here.

Legend:
[1] = (§1) Antiplatelet activity in human platelet-rich plasma assessed as inhibition of collagen-induced platelet aggregation treated for 5 mins prior to collagen challenge for 5 mins by turbidimetric method; assay type: functional, cell-free; conditions: for pIC50: Homo sapiens, Platelet, Plasma
[2] = tested on: Platelet; assay: as §1; assay type: functional, cell-free
[3] = tested on: Platelet; assay: Antiplatelet activity in human platelet-rich plasma assessed as inhibition of ADP-induced platelet aggregation treated for 5 mins prior to ADP challenge for 5 mins by turbidimetric method; assay type: functional, cell-free
[4] = tested on: Platelet; assay: Antiplatelet activity in human platelet-rich plasma assessed as inhibition of TRAP-induced platelet aggregation treated for 5 mins prior to TRAP challenge for 5 mins by turbidimetric method; assay type: functional, cell-free
[5] = tested on: Platelet; assay: Antiplatelet activity in human platelet-rich plasma assessed as inhibition of ristocetin-induced platelet aggregation treated for 5 mins prior to ristocetin challenge for 5 mins by turbidimetric method; assay type: functional, cell-free
[6] = Antiplatelet activity in human platelet-rich plasma assessed as inhibition of arachidonic acid-induced platelet aggregation treated for 5 mins prior to arachidonic acid challenge for 5 mins by turbidimetric method; assay type: functional, cell-free; conditions: for pIC50: Homo sapiens, Platelet, Plasma
[7] = (§2) Antiplatelet activity in human platelet-rich plasma assessed as inhibition of U46619-induced platelet aggregation treated for 5 mins prior to U46619 challenge for 5 mins by turbidimetric method; assay type: functional, cell-free; conditions: for pIC50: Homo sapiens, Platelet, Plasma
[8] = tested on: Platelet; assay: as §2; assay type: functional, cell-free
[9] = tested on: Mus musculus; assay: Antithrombotic activity in mouse assessed as protection against collagen-epinephrine-induced pulmonary thromboembolism at 30 uM/kg, po administered 60 mins prior to thrombotic challenge; assay type: functional
[10] = tested on: Mus musculus; assay: Prolongation of bleeding time in mouse at 30 uM/kg, po administered as single dose by tail excision method; assay type: ADME, organism-based; conditions: in vivo
[11] = Antiplatelet activity in human platelet-rich plasma assessed as inhibition of collagen-induced platelet aggregation at 30 uM treated for 5 mins prior to collagen challenge for 5 mins by turbidimetric method; assay type: functional
[12] = tested on: Mus musculus; assay: Antithrombotic activity in mouse assessed as protection against collagen-epinephrine-induced pulmonary thromboembolism at 30 uM/kg, po administered 60 mins prior to thrombotic challenge measured for up to 18 hrs post-drug dose; assay type: functional, organism-based
[13] = tested on: Mus musculus; assay: Antithrombotic activity in mouse assessed as protection against collagen-epinephrine-induced pulmonary thromboembolism at 30 uM/kg, po administered 60 mins prior to thrombotic challenge measured at >18 hrs post-drug dose; assay type: functional, organism-based
[14] = tested on: Mus musculus; assay: Prolongation of bleeding time in mouse at 30 uM/kg, po administered as single dose by tail excision method relative to control; assay type: ADME, organism-based; conditions: in vivo
[15] = Antiplatelet activity in human platelet-rich plasma assessed as inhibition of collagen-induced platelet aggregation at 10 uM treated for 5 mins prior to collagen challenge for 5 mins by turbidimetric method; assay type: functional
[16] = tested on: Platelet; assay: Antiplatelet activity in human platelet-rich plasma assessed as inhibition of convulxin-induced platelet aggregation treated for 5 mins prior to convulxin challenge for 5 mins by turbidimetric method; assay type: functional, cell-free
[17] = tested on: Platelet; assay: Antiplatelet activity in human platelet-rich plasma assessed as inhibition of CRP-XL-induced platelet aggregation up to 500 uM treated for 5 mins prior to CRP-XL challenge for 5 mins by turbidimetric method; assay type: functional, cell-free
[18] = tested on: Mus musculus; assay: Antithrombotic activity in mouse assessed as protection against collagen-epinephrine-induced pulmonary thromboembolism at 30 uM/kg, po administered 60 mins prior to thrombotic challenge measured for more than 24 hrs post-drug dose; assay type: functional, organism-based
[19] = tested on: Mus musculus; assay: Antithrombotic activity in mouse assessed as protection against collagen-epinephrine-induced pulmonary thromboembolism at 170 uM/kg, po administered 60 mins prior to thrombotic challenge; assay type: functional
[20] = tested on: Mus musculus; assay: Antithrombotic activity in mouse assessed as protection against collagen-epinephrine-induced pulmonary thromboembolism at 170 uM/kg, po administered 60 mins prior to thrombotic challenge measured for up to 5 hrs post-drug dose; assay type: functional, organism-based
[21] = tested on: Mus musculus; assay: Prolongation of bleeding time in mouse at 170 uM/kg, po administered as single dose by tail excision method relative to control; assay type: ADME, organism-based; conditions: in vivo
[22] = tested on: Mus musculus; assay: Antithrombotic activity in mouse assessed as protection against collagen-epinephrine-induced pulmonary thromboembolism at 30 uM/kg, po administered 60 mins prior to thrombotic challenge measured for up to 12 hrs post-drug dose; assay type: functional, organism-based

Row | Compound | pIC50 [1] | pIC50 [6] | pIC50 [7] | Activity [10] [%] | inhibition (INH) [1] [%] | inhibition [2] | inhibition [3] | inhibition [4] | inhibition [5] | inhibition (INH) [6] [%] | inhibition (INH) [7] [%] | inhibition [8] | Activity [9] [%] | other results
1 | Cc1ccc(CN2CSC[C@H]2C(=O)N2CCC[C@@H](CNC(=O)OC(C)(C)C)C2)cc1 | 5.10 | < 4.00 | 5.33 | 50 | 74 | Dose-dependent effect | inactive | inactive | inactive | 25 | 96 | Dose-dependent effect | 50 | –
2 | Cc1ccc(CN2C(=O)CC[C@H]2C(=O)N2CCCC(CNC(=O)OC(C)(C)C)C2)cc1 (mixture of isomers) | 4.80 | – | – | 50 | – | – | inactive | inactive | inactive | – | – | – | 60 | inhibition at 30 µM [11]: 77.3%; Activity [12]: Active; Activity [13]: inactive; fold change (FC) [14]: 1.5
3 | Cc1ccc(CN2C(=O)CC[C@H]2C(=O)N2CCC[C@@H](CNC(=O)OC(C)(C)C)C2)cc1 | 5.18 | – | – | – | – | – | inactive | inactive | inactive | – | – | – | 60 | inhibition at 10 µM [15]: 49%; inhibition [16]: inactive; inhibition [17]: Active; Activity [18]: Active
4 | CC(=O)Oc1ccccc1C(=O)O [ASPIRIN] | – | 5.30 | – | – | – | – | – | – | – | – | – | – | – | Activity [19]: 40%; Activity [20]: Active; fold change (FC) [21]: 2.2
5 | Cc1ccc(CN2C(=O)CC[C@H]2C(=O)N2CCC[C@H](CNC(=O)OC(C)(C)C)C2)cc1 | 4.43 | – | – | – | – | – | inactive | inactive | inactive | – | – | – | 50 | inhibition at 10 µM [15]: 30%; Activity [22]: Active

Now from value to molecule, other results behind:

Row | pIC50 [1] | pIC50 [6] | pIC50 [7] | Activity [10] [%] | Compound | inhibition (INH) [1] [%] | inhibition [2] | inhibition [3] | inhibition [4] | inhibition [5] | inhibition (INH) [6] [%] | inhibition (INH) [7] [%] | inhibition [8] | Activity [9] [%] | other results
6 | 5.19 | < 4.00 | 5.19 | 43 | Cc1ccc(CN2C(=O)SC[C@H]2C(=O)N2CCC[C@@H](CNC(=O)OC(C)(C)C)C2)cc1 | 81 | Dose-dependent effect | inactive | inactive | inactive | 15 | 75 | Dose-dependent effect | 40 | –
7 | 5.22 | < 4.00 | 4.99 | 50 | Cc1ccc(CN2C(=O)SC[C@H]2C(=O)N2CCC[C@H](CNC(=O)OC(C)(C)C)C2)cc1 | 83 | Dose-dependent effect | inactive | inactive | inactive | 8 | 64 | Dose-dependent effect | 50 | –
